Structures are written as SMILES. In brackets after ≈: the same amount, converted by molar mass.

The assay relates to Leukämie-Zellinie L1210. The experiment in a line: in vitro cytotoxicity test, growth inhibition of cultured leukaemia cell line L1210. Particulars: Mus musculus, 72 h; L1210 cells, 3-day incubation, cell count, by interpolation; read-out: ID₅₀ (50 % Hemmwirkdosis). It counts as cell-based, Mäuse. Here is the method: Die Saframycin-Derivate der vorliegenden Erfindungen zeigen insbesondere in vitro Zytotoxizität gegenüber Zellkulturen von Mäuse-Leukämie-Zellen L 1210 (NCI). Für die geprüften Verbindungen werden ID₅₀-Werte im Bereich von 0,1 bis 0,001 µg/ml gefunden.
Die Wirksamkeit gegen Tumoren in vitro wird mit einer kultivierten Leukämie-Zellinie L1210 (K. Kishi et al., J. Antibiot. 37, 847 (1984)) bestimmt. Die Zellen werden in Eagle's minimum essential medium (Nissui Seiyaku Co. Ltd., Tokyo) enthaltend 10 % fötales Kälberserum (Gibco Laboratories) in Suspension-Kultur gehalten. Die Zellen werden bei einer Konzentration von 3x10⁴ Zellen/ml in 24-Loch-Mikrotiterplatten (Costar) suspendiert und bei 37° in einer feuchten Atmosphäre enthaltend 5 % CO₂ in Luft 24 Stunden lang kultiviert, um exponentielles Wachstum auszulösen. Diese Kulturen werden mit einer Reihe von jeweils um den Faktor 10 verdünnten Proben Saframycin-Derivaten dieser Erfindung versetzt. Die Konzentration der Zellen wird nach 3-tägiger Inkubation durch elektrische Zählung mit einem Sysmex CC-130 Mikro-Zellzählgerät (Toa Electronics Ltd., Tokyo) bestimmt. Die Wachstumshemmung (Inhibierung I) in Prozent wird für jede Dosismenge nach der Formel I=(C3-T3)/(C3-C0)x100, worin T3 die Zellkonzentration in den Vertiefungen der Mikrotiterplatte bei einer gegebenen Verdünnung des Wirkstoffs nach 3-tägiger Inkubation, C3 die Zellkonzentration in der entsprechenden Kontroll-Inkubation und C0 die Zellkonzentration in den Vertiefungen vor der 3-tägigen Inkubation bedeuten, berechnet. ID₅₀ (50 % Hemmwirkdosis) wird durch Interpolierung bestimmt.

With `CCCCCC(=O)N[C@@H](C)C(=O)NCC1C2=C(CC3C4C5=C(CC(C(C#N)N13)N4C)C(=O)C(C)=C(OC)C5=O)C(=O)C(C)=C(OC)C2=O` (stereo partly drawn) [N-n-Hexanoyl-Saframycin Y₃], the IC50 turned out to be 0.0075 µg/mL (≈ 0.0113 µM).
In the case of `CCCN(CCC)[C@@H](C)C(=O)NCC1C2=C(CC3C4C5=C(CC(C(C#N)N13)N4C)C(=O)C(C)=C(OC)C5=O)C(=O)C(C)=C(OC)C2=O` (stereo partly drawn) [N,N-Dipropyl-Saframycin Y₃, N,N-Di-n-propyl-Saframycin Y₃], the IC50 is 0.0015 µg/mL (≈ 0.00232 µM).
In the case of `COC1=C(C)C(=O)C2=C(C1=O)C1C3CC4=C(C(=O)C(OC)=C(C)C4=O)C(CNC(=O)[C@H](C)NC(=S)Nc4ccccc4)N3C(C#N)C(C2)N1C` (stereo partly drawn) [N-Phenylthiocarbamoyl-Saframycin Y₃], the IC50 was found to be 0.1 µg/mL (≈ 0.143 µM).
As for `CCCCCCCC(=O)N[C@@H](C)C(=O)NCC1C2=C(CC3C4C5=C(CC(C(C#N)N13)N4C)C(=O)C(C)=C(OC)C5=O)C(=O)C(C)=C(OC)C2=O` (stereo partly drawn) [N-n-Octanoyl-Saframycin Y₃], the figure is 0.11 µg/mL (≈ 0.159 µM).
Consider `CCC(=O)N[C@@H](C)C(=O)NCC1C2=C(CC3C4C5=C(CC(C(C#N)N13)N4C)C(=O)C(C)=C(OC)C5=O)C(=O)C(C)=C(OC)C2=O` (stereo partly drawn) [N-Propionyl-Saframycin Y₃], for which the IC50 was found to be 0.02 µg/mL (≈ 0.0323 µM).
In the case of `CCCCCCCCCC(=O)N[C@@H](C)C(=O)NCC1C2=C(CC3C4C5=C(CC(C(C#N)N13)N4C)C(=O)C(C)=C(OC)C5=O)C(=O)C(C)=C(OC)C2=O` (stereo partly drawn) [N-n-Decanoyl-Saframycin Y₃] it was 0.11 µg/mL (≈ 0.153 µM); in that of `CCCCCCCCCCCCCCCC(=O)N[C@@H](C)C(=O)NCC1C2=C(CC3C4C5=C(CC(C(C#N)N13)N4C)C(=O)C(C)=C(OC)C5=O)C(=O)C(C)=C(OC)C2=O` (stereo partly drawn) [N-n-Hexadecanoyl-Saframycin Y₃], 0.03 µg/mL (≈ 0.0374 µM).
`COC1=C(C)C(=O)C2=C(C1=O)C1C3CC4=C(C(=O)C(OC)=C(C)C4=O)C(CNC(=O)[C@H](C)NC(=O)c4ccc(Br)cc4)N3C(C#N)C(C2)N1C` (stereo partly drawn) [N-p-Brombenzyol-Saframycin Y₃, N-p-Brombenzoyl-Saframycin Y₃]: the IC50 was 0.01 µg/mL (≈ 0.0134 µM).
For `COC1=C(C)C(=O)C2=C(C1=O)C1C3CC4=C(C(=O)C(OC)=C(C)C4=O)C(CNC(=O)[C@H](C)NCc4ccc([N+](=O)[O-])cc4)N3C(C#N)C(C2)N1C` (stereo partly drawn) [N-p-Nitrobenzyl-Saframycin Y₃], the IC50 turned out to be 0.0015 µg/mL (≈ 0.00215 µM).
In the case of `CCCCN(CCCC)[C@@H](C)C(=O)NCC1C2=C(CC3C4C5=C(CC(C(C#N)N13)N4C)C(=O)C(C)=C(OC)C5=O)C(=O)C(C)=C(OC)C2=O` (stereo partly drawn) [N,N-Dibutyl-Saframycin Y₃, N,N-Di-n-butyl-Saframycin Y₃] it was 0.08 µg/mL (≈ 0.118 µM).
On to `COC1=C(C)C(=O)C2=C(C1=O)C1C3CC4=C(C(=O)C(OC)=C(C)C4=O)C(CNC(=O)[C@H](C)NC(=O)Nc4ccccc4)N3C(C#N)C(C2)N1C` (stereo partly drawn) [N-Phenylcarbamoyl-Saframycin Y₃], for which the IC50 amounted to 0.04 µg/mL (≈ 0.0586 µM).
In the case of `COC1=C(C)C(=O)C2=C(C1=O)C1C3CC4=C(C(=O)C(OC)=C(C)C4=O)C(CNC(=O)[C@H](C)NC(=O)Nc4cccc5ccccc45)N3C(C#N)C(C2)N1C` (stereo partly drawn) [N-α-Naphthylcarbamoyl-Saframycin Y₃], the IC50 was found to be 0.08 µg/mL (≈ 0.109 µM).
As for `CCN(CC)[C@@H](C)C(=O)NCC1C2=C(CC3C4C5=C(CC(C(C#N)N13)N4C)C(=O)C(C)=C(OC)C5=O)C(=O)C(C)=C(OC)C2=O` (stereo partly drawn) [N,N-Diäthyl-Saframycin Y₃], the figure is 0.0035 µg/mL (≈ 0.00565 µM); as for `COC1=C(C)C(=O)C2=C(C1=O)C1C3CC4=C(C(=O)C(OC)=C(C)C4=O)C(CNC(=O)[C@H](C)NC(C)C)N3C(C#N)C(C2)N1C` (stereo partly drawn) [N-Isopropyl-Saframycin Y₃], 0.0018 µg/mL (≈ 0.00297 µM); as for `COC1=C(C)C(=O)C2=C(C1=O)C1C3CC4=C(C(=O)C(OC)=C(C)C4=O)C(CNC(=O)[C@H](C)NC(=O)C(C)(C)C)N3C(C#N)C(C2)N1C` (stereo partly drawn) [N-Pivaloyl-Saframycin Y₃], 0.01 µg/mL (≈ 0.0154 µM).

The values above are taken from EP0233841A1, “Quinone derivatives and process for their preparation” (Arai, Tadashi, Prof., priority 1986, dated 1987).
